Among the data in patent publication US8324227B2, “Thieno[2,3-D]-pyrimidin-4(3H)-one compounds with antifungal properties and process thereof” (FDC Limited, priority 2008, dated 2012) are MIC values, retold here.

Assay in all cases: Antifungal susceptibility, MIC by broth macro-dilution method
In one assay the test system is A. niger (ATCC 16404). The assay is classed as cell-based, Aspergillus niger. The conditions noted are these: Aspergillus niger, ATCC16404, RPMI 1640 medium with MOPS buffer, end points after 48 hours, NI till x = no inhibition up to x, read-out: MIC against fungi, A. niger (ATCC 16404). As to the method: (§1) In vitro evaluation of antifungal activity was performed by determining the minimum inhibitory concentration (MIC). Anti-fungal susceptibility testing of these anti-fungal compounds was done by broth dilution method using RPMI 1640 medium with MOPS buffer. Known anti-fungal agents like fluconazole and amphotericin-B were used as positive control. End points were determined after 48 hours visually and by using spectrophotometer wherever necessary. Different dilutions were, tried and various sets of experiments performed.

The subject of assay [1] is F. proliferatum (ATCC 10052). In kind it is cell-based, Fusarium proliferatum. As to conditions: Fusarium proliferatum, ATCC10052, RPMI 1640 medium with MOPS buffer, end points after 48 hours, NI till x = no inhibition up to x, read-out: MIC against fungi, F. proliferatum (ATCC 10052). Here is the method:
as §1

For another assay, the system named is C. albicans (ATCC 24433). The assay is classed as cell-based, Candida albicans. The conditions noted are these: Candida albicans, ATCC24433, RPMI 1640 medium with MOPS buffer, end points after 48 hours, NI till x = no inhibition up to x, read-out: MIC against fungi, C. albicans (ATCC 24433). Here is the method:
as §1

Molecules are shown by their SMILES. ≈ marks a conversion by molar mass, not a printed value.

As a reminder, the MIC is the smallest concentration in the dilution series that meets the test's criterion for growth inhibition.

With `NCC(=O)OCCCCc1cc2c(=O)n(CC(O)(Cn3cncn3)c3ccc(F)cc3F)cnc2s1` (stereo not drawn) [Compound 1-A25, 3-[2-(2,4-Difluorophenyl)-2-hydroxy-3-[1,2,4]-triazol-1-yl-propyl]-6-(4-aminoacetyloxybutyl)-thieno[2,3-d]pyrimidin-4(3H)-one], the results for the MIC (in the assay on A. niger (ATCC 16404); in assay [1]; with C. albicans (ATCC 24433)) were over 8 µg/mL, over 8 µg/mL and 4 to 8 µg/mL (≈ 7.71 to 15.4 µM), respectively.

On to `CC(=O)OCCCc1cc2c(=O)n(CC(O)(Cn3cncn3)c3ccc(F)cc3F)cnc2s1` (stereo not drawn) [Compound 1-A26, 3-[2-(2,4-Difluorophenyl)-2-hydroxy-3-[1,2,4]-triazol-1-yl-propyl]-6-(3-acetoxypropyl)-thieno[2,3-d]pyrimidin-4(3H)-one], for which the MIC was over 64 µg/mL in the assay on A. niger (ATCC 16404), over 64 µg/mL in assay [1] and 1 to 2 µg/mL (≈ 2.04 to 4.09 µM) with C. albicans (ATCC 24433).

`O=c1c2cc(CCCO)sc2ncn1CC(O)(Cn1cncn1)c1ccc(F)cc1F` (stereo not drawn) [Compound 1-A27, 3-[2-(2,4-Difluorophenyl)-2-hydroxy-3-[1,2,4]-triazol-1-yl-propyl]-6-(3-hydroxypropyl)-thieno[2,3-d]pyrimidin-4(3H)-one]: the MIC in the assay with A. niger (ATCC 16404) was over 128 µg/mL; in assay [1] it was over 128 µg/mL; in the assay with C. albicans (ATCC 24433) it was 2 to 4 µg/mL (≈ 4.47 to 8.94 µM).

Take `Cc1cc2c(=O)n(CC(O)(Cn3cncn3)c3ccc(F)cc3F)cnc2s1` (stereo not drawn) [Compound 1-A28, 3-[2-(2,4-Difluorophenyl)-2-hydroxy-3-[1,2,4]-triazol-1-yl-propyl]-6-methylthieno[2,3-d]pyrimidin-4(3H)-one]: the MIC with A. niger (ATCC 16404) is over 64 µg/mL; in assay [1], over 64 µg/mL; with C. albicans (ATCC 24433), 0.25 to 0.5 µg/mL (≈ 0.62 to 1.24 µM).

`OC(Cn1cncn1)(Cn1cncn1)c1ccc(F)cc1F` [Fluconazole, reference compound]: the MIC is 64 to 128 µg/mL (≈ 209 to 418 µM) in the assay on A. niger (ATCC 16404), over 128 µg/mL in assay [1] and 0.25 to 1 µg/mL (≈ 0.816 to 3.27 µM) in the assay on C. albicans (ATCC 24433).
